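GI50: concentration for 50% inhibition of growth. TGI: concentration producing complete growth inhibition.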
Key:
Experiment in all cases: growth of human tumour cells (NCI), 384-well format
IGROV1 ovarian = tested on: IGROV1 ovarian
786-0 renal = tested on: 786-0 renal
SN12C renal = tested on: SN12C renal
MALME-3M melanoma = tested on: MALME-3M melanoma
SNB-75 CNS = tested on: SNB-75 CNS
HS 578T breast = tested on: HS 578T breast
SK-MEL-5 melanoma = tested on: SK-MEL-5 melanoma
UACC-257 melanoma = tested on: UACC-257 melanoma
SK-MEL-2 melanoma = tested on: SK-MEL-2 melanoma
HCC-2998 colon = tested on: HCC-2998 colon
NCI-H522 lung = tested on: NCI-H522 lung
MDA-MB-435 melanoma = tested on: MDA-MB-435 melanoma
NCI-H322M lung = tested on: NCI-H322M lung

NC1(c2ccc(-c3nc4ccn5c(=O)[nH]nc5c4cc3-c3ccccc3)cc2)CCC1
GI50 (IGROV1 ovarian): 0.188 µM
TGI (IGROV1 ovarian): 2.39 µM
GI50 (786-0 renal): 1.07 µM
TGI (786-0 renal): 2.32 µM
GI50 (SN12C renal): 4.04 µM
TGI (SN12C renal): 16.3 µM
GI50 (MALME-3M melanoma): 0.683 µM
TGI (MALME-3M melanoma): 2.21 µM
GI50 (SNB-75 CNS): 0.239 µM
TGI (SNB-75 CNS): 1.78 µM
GI50 (HS 578T breast): 0.704 µM
TGI (HS 578T breast): 2.17 µM
GI50 (SK-MEL-5 melanoma): 0.777 µM
TGI (SK-MEL-5 melanoma): 1.93 µM
GI50 (UACC-257 melanoma): 1.54 µM
TGI (UACC-257 melanoma): 2.89 µM
GI50 (SK-MEL-2 melanoma): 1.59 µM
TGI (SK-MEL-2 melanoma): 2.95 µM
GI50 (HCC-2998 colon): 1.39 µM
TGI (HCC-2998 colon): 2.78 µM
GI50 (NCI-H522 lung): 2.39 µM
TGI (NCI-H522 lung): 6.5 µM
GI50 (MDA-MB-435 melanoma): 2.36 µM
TGI (MDA-MB-435 melanoma): 7.21 µM
GI50 (NCI-H322M lung): 2.44 µM
TGI (NCI-H322M lung): 10.2 µM
